The results in this text go back to BindingDB's records for doi:10.1038/sj.bjp.0702632 (Roche Bioscience, 1999).

In test [1] the target is 5-hydroxytryptamine receptor 2B (Homo sapiens, UniProt P41595).
Test [2] has as its target T1, 5-hydroxytryptamine receptor 2C (Homo sapiens, UniProt P28335).
T1 sequence (P28335 whole entry): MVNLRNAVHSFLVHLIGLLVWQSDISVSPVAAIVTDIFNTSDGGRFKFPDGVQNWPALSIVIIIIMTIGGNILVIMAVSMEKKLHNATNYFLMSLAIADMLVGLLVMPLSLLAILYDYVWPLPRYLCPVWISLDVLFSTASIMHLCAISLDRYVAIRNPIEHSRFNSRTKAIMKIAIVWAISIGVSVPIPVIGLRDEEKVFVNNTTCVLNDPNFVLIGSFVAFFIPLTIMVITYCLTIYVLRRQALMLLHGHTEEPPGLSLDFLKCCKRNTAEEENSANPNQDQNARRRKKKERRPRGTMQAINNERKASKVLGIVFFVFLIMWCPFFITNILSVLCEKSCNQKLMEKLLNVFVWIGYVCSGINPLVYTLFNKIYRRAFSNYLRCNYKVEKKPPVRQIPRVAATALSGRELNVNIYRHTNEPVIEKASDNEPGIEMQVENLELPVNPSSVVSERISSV

Test [3] deals with T2, 5-hydroxytryptamine receptor 3A (Homo sapiens, UniProt P46098).
T2 sequence (P46098 whole entry): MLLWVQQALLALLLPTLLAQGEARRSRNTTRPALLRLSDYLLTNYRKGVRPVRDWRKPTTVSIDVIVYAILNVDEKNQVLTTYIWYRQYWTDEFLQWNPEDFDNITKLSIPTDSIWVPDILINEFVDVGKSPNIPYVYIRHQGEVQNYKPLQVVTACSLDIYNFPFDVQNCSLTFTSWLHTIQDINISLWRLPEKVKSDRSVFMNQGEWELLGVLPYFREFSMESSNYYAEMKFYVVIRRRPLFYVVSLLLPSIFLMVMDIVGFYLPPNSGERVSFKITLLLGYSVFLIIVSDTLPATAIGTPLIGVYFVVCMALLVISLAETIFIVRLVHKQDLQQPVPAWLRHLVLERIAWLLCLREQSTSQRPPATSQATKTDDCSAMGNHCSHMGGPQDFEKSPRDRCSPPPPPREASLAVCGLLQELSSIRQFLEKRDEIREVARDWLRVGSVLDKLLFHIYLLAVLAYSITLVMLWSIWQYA

Test [4] has as its target 5-hydroxytryptamine receptor 6 (Homo sapiens, UniProt P50406).
The target in test [5] is 5-hydroxytryptamine receptor 5A (Homo sapiens, UniProt P47898).
Chain of 5-hydroxytryptamine receptor 5A (P47898 whole entry): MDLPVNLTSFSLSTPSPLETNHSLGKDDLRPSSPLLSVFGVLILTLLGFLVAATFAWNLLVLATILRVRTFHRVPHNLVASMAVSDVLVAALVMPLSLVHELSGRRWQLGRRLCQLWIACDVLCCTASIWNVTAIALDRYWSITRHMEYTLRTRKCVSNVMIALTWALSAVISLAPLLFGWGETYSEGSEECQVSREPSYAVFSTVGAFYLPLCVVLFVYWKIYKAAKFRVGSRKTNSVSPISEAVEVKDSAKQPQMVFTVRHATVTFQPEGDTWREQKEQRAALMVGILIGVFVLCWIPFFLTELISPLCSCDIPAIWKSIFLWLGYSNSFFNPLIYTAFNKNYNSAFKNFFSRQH
In test [6] the target is 5-hydroxytryptamine receptor 2A (Homo sapiens, UniProt P28223).
Chain of 5-hydroxytryptamine receptor 2A (P28223 whole entry): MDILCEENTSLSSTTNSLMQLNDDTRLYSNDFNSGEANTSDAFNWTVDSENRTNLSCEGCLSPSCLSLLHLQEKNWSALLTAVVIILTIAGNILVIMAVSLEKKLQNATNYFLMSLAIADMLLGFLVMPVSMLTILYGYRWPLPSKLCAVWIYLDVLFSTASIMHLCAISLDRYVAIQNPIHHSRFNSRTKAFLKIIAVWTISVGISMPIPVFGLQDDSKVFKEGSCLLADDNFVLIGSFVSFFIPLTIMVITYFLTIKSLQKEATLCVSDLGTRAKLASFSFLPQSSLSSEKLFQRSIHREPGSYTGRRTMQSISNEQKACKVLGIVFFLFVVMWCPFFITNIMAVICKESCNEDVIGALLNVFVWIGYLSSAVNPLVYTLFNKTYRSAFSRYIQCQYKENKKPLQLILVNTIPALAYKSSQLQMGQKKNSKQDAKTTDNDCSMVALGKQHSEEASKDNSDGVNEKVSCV

SMILES strings stand for the structures.

Chain of 5-hydroxytryptamine receptor 2B (P41595 whole entry): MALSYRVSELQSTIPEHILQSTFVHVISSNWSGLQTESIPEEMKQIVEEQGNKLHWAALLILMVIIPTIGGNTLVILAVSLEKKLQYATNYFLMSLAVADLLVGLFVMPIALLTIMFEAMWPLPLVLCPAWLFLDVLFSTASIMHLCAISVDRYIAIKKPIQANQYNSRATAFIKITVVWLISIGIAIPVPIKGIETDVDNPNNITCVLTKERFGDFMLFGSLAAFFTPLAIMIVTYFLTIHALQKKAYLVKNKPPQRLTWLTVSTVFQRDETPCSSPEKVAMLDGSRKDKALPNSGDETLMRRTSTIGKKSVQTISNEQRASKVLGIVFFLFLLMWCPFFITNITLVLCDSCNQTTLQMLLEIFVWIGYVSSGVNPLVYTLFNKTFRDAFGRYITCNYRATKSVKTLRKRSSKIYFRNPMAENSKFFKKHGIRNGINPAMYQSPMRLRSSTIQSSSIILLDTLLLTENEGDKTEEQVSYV
Chain of 5-hydroxytryptamine receptor 6 (P50406 whole entry): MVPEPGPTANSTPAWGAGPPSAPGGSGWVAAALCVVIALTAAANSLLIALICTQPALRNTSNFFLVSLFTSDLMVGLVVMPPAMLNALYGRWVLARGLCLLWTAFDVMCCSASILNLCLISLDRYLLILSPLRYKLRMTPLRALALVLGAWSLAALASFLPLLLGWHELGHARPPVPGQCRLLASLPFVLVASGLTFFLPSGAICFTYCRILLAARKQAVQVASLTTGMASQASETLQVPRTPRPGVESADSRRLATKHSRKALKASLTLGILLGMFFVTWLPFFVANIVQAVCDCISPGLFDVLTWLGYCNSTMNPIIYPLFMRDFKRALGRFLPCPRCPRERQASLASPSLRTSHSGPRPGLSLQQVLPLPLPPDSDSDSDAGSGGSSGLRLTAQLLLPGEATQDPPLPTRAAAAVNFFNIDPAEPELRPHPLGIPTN

In test [1], `Cc1nc2sccn2c(=O)c1CCN1CCC(=C(c2ccc(F)cc2)c2ccc(F)cc2)CC1` displayed an inhibition constant Ki of 1 nM.
On the same count and under the same terms, the figure for `COc1ccc(CC2NCCc3c2[nH]c2ccccc32)cc1OC` (stereo not drawn) [LY-23728] is 1 nM.
As for `CC(C)c1cc(-c2ccc(F)c3ccccc23)nc(N)n1` [RS-127445], the Ki was determined as 398 nM in test [2]; 1000 nM in test [3]; 1000 nM in test [4]; 0.32 nM in test [1]; 1000 nM in test [5]; 501 nM in test [6].
